{"source": "paper PMC5325082", "about": "(Molecular Pharmacology, 2017)", "type_in_all_cases": "cell-based", "key": {"rat α9α10Y190T receptor": {"biological_target": "rat α9α10Y190T receptor (Rattus norvegicus, UniProt P43144+Q9JLB5, Y216T)", "sequence (P43144 26-479)": "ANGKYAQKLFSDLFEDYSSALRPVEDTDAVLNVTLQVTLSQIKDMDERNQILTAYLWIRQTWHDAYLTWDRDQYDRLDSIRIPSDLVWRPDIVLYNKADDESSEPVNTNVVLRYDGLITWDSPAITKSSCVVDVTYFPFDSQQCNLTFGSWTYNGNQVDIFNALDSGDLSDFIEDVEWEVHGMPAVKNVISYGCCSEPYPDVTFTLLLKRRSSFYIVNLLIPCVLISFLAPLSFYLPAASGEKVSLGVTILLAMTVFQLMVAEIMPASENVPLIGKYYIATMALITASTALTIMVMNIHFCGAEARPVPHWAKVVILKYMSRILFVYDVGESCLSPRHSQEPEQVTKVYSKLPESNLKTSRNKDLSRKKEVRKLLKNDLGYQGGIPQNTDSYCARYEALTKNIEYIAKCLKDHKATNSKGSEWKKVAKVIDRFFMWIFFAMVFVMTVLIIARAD", "sequence (Q9JLB5 25-447 Y216T)": "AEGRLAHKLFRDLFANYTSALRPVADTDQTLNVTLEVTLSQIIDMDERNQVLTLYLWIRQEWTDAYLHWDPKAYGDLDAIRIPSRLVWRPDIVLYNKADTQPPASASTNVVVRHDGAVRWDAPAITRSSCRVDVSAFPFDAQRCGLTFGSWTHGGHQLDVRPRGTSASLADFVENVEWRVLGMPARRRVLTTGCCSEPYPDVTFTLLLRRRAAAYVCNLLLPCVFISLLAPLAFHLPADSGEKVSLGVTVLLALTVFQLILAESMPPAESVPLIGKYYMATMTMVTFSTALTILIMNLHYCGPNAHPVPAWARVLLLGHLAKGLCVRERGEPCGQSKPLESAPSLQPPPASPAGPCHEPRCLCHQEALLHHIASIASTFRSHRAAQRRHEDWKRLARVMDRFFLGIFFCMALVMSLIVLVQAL", "test": "ACh-evoked currents, two-electrode voltage clamp in Xenopus laevis oocytes", "from_the_text": "(§1) cDNAs encoding Gallus gallus (chick) or Rattus norvegicus (rat) α9 and α10 nAChR subunits were subcloned into a modified pGEMHE vector for expression studies in Xenopus laevis oocytes. Capped cRNAs were in vitro transcribed from linearized plasmid DNA templates using RiboMAX Large Scale RNA Production System (Promega, Madison, WI). Mutant subunits were produced using Quick Change XL II kit (Stratagene, La Jolla, CA). Amino acid sequences of rat and chicken α9, α10, and Torpedo α1 subunits were aligned using ClustalW (EMBL-EBI, Wellcome Genome Campus, Hinxton, Cambridgeshire). Residues were numbered according to the corresponding Torpedo α1 subunit mature protein ([Karlin, 2002]).\n(§2) The maintenance of Xenopus laevis and the preparation and cRNA injection of stage V and VI oocytes have been described in detail elsewhere ([Verbitsky et al., 2000]). Typically, oocytes were injected with 50 nl of RNase-free water containing 0.01–1.0 ng of cRNA (at a 1:1 molar ratio when pairwise combined) and maintained in Barth’s solution at 18°C. Electrophysiological recordings were performed 2–6 days after cRNA injection under two-electrode voltage clamp with an Oocyte Clamp OC-725B or C amplifier (Warner Instruments Corp., Hamden, CT). Recordings were filtered at a corner frequency of 10 Hz using a 900BT Tunable Active Filter (Frequency Devices Inc., Ottawa, IL). Data acquisition was performed using a Patch Panel PP-50 LAB/1 interface (Warner Instruments Corp.) at a rate of 10 points per second. Both voltage and current electrodes were filled with 3 M KCl and had resistances of ∼1 MΩ. Data were analyzed using Clampfit from the pClamp 6.1 software (Molecular Devices, Sunnyvale, CA). During electrophysiological recordings, oocytes were continuously superfused (∼15 ml/min) with normal frog saline composed of: 115 mM NaCl, 2.5 mM KCl, 1.8 mM CaCl2, and 10 mM HEPES buffer, pH 7.2. […] Unless otherwise indicated, the membrane potential was clamped to −70 mV. To minimize activation of the endogenous Ca^2+ sensitive chloride current ([Elgoyhen et al., 2001]), all experiments were performed in oocytes incubated with the Ca^2+ chelator 1,2-bis(2-aminophenoxy)ethane-N,N,N′,N′-tetraacetic acid (acetoxymethyl ester) (100 µM) for 3 hours before electrophysiological recordings.\n(§3) Concentration-response curves were normalized to the maximal agonist response in each oocyte. The mean and S.E.M. values of the responses are represented. Agonist concentration-response curves were iteratively fitted, using Prism 5 software (GraphPad Software Inc., La Jolla, CA), with the equation: I/Imax = A^nH/(A^nH + EC50^nH), where I is the peak inward current evoked by the agonist at concentration A; Imax is the current evoked by the concentration of the agonist eliciting a maximal response; EC50 is the concentration of the agonist inducing a half-maximal current response; and nH is the Hill coefficient. Data were analyzed using Clampfit from the pClamp 6.1 software."}, "rat α9Y190Tα10 receptor": {"biological_target": "rat α9Y190Tα10 receptor (Rattus norvegicus, UniProt P43144+Q9JLB5, Y217T)", "sequence (P43144 26-479 Y217T)": "as the sequence (P43144 26-479) above, with Y192T counted along it", "sequence (Q9JLB5 25-447)": "as the sequence (Q9JLB5 25-447 Y216T) above, with T192Y counted along it", "test": "ACh-evoked currents, two-electrode voltage clamp in Xenopus laevis oocytes", "from_the_text": "as §1, §2, §3"}, "rat α9α10CC/SS receptor": {"biological_target": "rat α9α10CC/SS receptor (Rattus norvegicus, UniProt P43144+Q9JLB5, C218S/C219S)", "sequence (P43144 26-479, stated change not applied)": "as the sequence (P43144 26-479) above", "sequence (Q9JLB5 25-447 C218S/C219S)": "as the sequence (Q9JLB5 25-447 Y216T) above, with T192Y, C194S, C195S counted along it", "test": "ACh-evoked currents, two-electrode voltage clamp in Xenopus laevis oocytes", "from_the_text": "as §1, §2, §3"}, "[1]": {"biological_target": "chicken α9α10 nAChR (wild type) (Gallus gallus, UniProt Q9I8C7+Q9PTS8)", "sequence (Q9I8C7 27-452)": "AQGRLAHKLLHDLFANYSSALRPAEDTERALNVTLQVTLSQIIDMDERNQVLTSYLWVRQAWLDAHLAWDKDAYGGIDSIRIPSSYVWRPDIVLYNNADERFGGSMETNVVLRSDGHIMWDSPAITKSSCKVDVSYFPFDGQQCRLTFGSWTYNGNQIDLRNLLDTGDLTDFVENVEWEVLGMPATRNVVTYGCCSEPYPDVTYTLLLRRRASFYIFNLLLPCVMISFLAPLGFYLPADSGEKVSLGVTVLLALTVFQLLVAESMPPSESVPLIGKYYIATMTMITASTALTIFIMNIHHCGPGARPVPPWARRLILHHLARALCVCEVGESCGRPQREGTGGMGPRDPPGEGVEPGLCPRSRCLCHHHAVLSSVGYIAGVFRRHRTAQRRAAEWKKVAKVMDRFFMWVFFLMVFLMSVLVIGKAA", "sequence (Q9PTS8 28-484)": "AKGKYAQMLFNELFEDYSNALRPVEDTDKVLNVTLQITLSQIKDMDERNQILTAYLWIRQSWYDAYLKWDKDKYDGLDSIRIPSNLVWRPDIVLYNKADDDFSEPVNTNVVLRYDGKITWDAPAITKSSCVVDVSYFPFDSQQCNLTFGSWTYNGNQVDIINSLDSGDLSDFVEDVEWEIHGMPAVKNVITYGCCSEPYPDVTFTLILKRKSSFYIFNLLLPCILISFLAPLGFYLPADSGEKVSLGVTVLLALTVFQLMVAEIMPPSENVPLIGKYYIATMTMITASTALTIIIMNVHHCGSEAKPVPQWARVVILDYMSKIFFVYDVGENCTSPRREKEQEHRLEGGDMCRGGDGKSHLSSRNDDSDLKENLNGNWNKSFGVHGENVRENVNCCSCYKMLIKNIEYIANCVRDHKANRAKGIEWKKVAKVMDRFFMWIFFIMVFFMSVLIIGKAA", "test": "ACh-evoked currents, two-electrode voltage clamp in Xenopus laevis oocytes, wild-type receptor", "from_the_text": "as §1\nThe maintenance of Xenopus laevis and the preparation and cRNA injection of stage V and VI oocytes have been described in detail elsewhere ([Verbitsky et al., 2000]). Typically, oocytes were injected with 50 nl of RNase-free water containing 0.01–1.0 ng of cRNA (at a 1:1 molar ratio when pairwise combined) and maintained in Barth’s solution at 18°C. […] Data were analyzed using Clampfit from the pClamp 6.1 software (Molecular Devices, Sunnyvale, CA). […]\nConcentration-response curves were normalized to the maximal agonist response in each oocyte. […] Data were analyzed using Clampfit from the pClamp 6.1 software."}, "[2]": {"biological_target": "rat α9α10 W55T/R117M receptor (Rattus norvegicus, UniProt P43144+Q9JLB5, R143M/W81T)", "sequence (P43144 26-479)": "as the sequence (P43144 26-479) above", "sequence (Q9JLB5 25-447 W81T/R143M)": "as the sequence (Q9JLB5 25-447 Y216T) above, with W57T, R119M, T192Y counted along it", "test": "ACh-evoked currents, two-electrode voltage clamp in Xenopus laevis oocytes", "from_the_text": "as §1, §2\n(§4) Concentration-response curves were normalized to the maximal agonist response in each oocyte. The mean and S.E.M. values of the responses are represented. […] Data were analyzed using Clampfit from the pClamp 6.1 software. […]"}, "rat α9α10R117M receptor": {"biological_target": "rat α9α10R117M receptor (Rattus norvegicus, UniProt P43144+Q9JLB5, R143M)", "sequence (P43144 26-479)": "as the sequence (P43144 26-479) above", "sequence (Q9JLB5 25-447 R143M)": "as the sequence (Q9JLB5 25-447 Y216T) above, with R119M, T192Y counted along it", "test": "ACh-evoked currents, two-electrode voltage clamp in Xenopus laevis oocytes", "from_the_text": "as §1, §2, §4"}, "rat α9α10W55T receptor": {"biological_target": "T1, rat α9α10W55T receptor (Rattus norvegicus, UniProt P43144+Q9JLB5, W81T)", "T1 construct": "expressed in transfected cells; host or cells: Xenopus laevis oocytes (cRNA injection)", "T1 sequence (P43144 26-479)": "as the sequence (P43144 26-479) above", "T1 sequence (Q9JLB5 25-447 W81T)": "as the sequence (Q9JLB5 25-447 Y216T) above, with W57T, T192Y counted along it", "test": "ACh-evoked currents, two-electrode voltage clamp in Xenopus laevis oocytes", "from_the_text": "as §1, §2, §4"}}}
{"smiles": "CC(=O)OCC[N+](C)(C)C", "note": "[ACh, acetylcholine]", "values": [{"measurement": "Imax (maximal evoked current)", "setting": "rat α9α10Y190T receptor", "value": "336 ± 91", "unit": "nA"}, {"measurement": "Imax (maximal evoked current)", "setting": "rat α9Y190Tα10 receptor", "value": "112 ± 6", "unit": "nA"}, {"measurement": "Imax (maximal evoked current)", "setting": "rat α9α10CC/SS receptor", "value": "571 ± 113", "unit": "nA"}, {"measurement": "EC50", "setting": "[1]", "value": "16 ± 2", "unit": "µM"}, {"measurement": "Imax (maximal evoked current)", "setting": "[1]", "value": "100 ± 12", "unit": "nA"}, {"measurement": "Imax (maximal evoked current)", "setting": "[2]; rat α9α10 W55T/R117M, oocytes", "value": "245 ± 83", "unit": "nA"}, {"measurement": "Free energy coupling, double-mutant cycle", "setting": "[2]; α10W55 and α10R117", "value": -1.47, "unit": "kcal/mol"}, {"measurement": "Imax (maximal evoked current)", "setting": "rat α9α10R117M receptor", "value": "107 ± 38", "unit": "nA"}, {"measurement": "Imax (maximal evoked current)", "setting": "rat α9α10W55T receptor", "value": "177 ± 81", "unit": "nA"}]}
